Like-named read-outs stand apart in the source and are kept apart here.
Key:
[1] = molecular target: T1, Streptomyces plicatus N-acetyl-β-hexosaminidase (SpHex) (Streptomyces plicatus, UniProt O85361); assay: SpHex kinetic inhibition assay (4-nitrophenyl N-acetyl-β-D-glucosaminide substrate, competitive model); assay type: biochemical
T1 construct: made in house; host or cells: E. coli
T1 sequence (O85361 1-506): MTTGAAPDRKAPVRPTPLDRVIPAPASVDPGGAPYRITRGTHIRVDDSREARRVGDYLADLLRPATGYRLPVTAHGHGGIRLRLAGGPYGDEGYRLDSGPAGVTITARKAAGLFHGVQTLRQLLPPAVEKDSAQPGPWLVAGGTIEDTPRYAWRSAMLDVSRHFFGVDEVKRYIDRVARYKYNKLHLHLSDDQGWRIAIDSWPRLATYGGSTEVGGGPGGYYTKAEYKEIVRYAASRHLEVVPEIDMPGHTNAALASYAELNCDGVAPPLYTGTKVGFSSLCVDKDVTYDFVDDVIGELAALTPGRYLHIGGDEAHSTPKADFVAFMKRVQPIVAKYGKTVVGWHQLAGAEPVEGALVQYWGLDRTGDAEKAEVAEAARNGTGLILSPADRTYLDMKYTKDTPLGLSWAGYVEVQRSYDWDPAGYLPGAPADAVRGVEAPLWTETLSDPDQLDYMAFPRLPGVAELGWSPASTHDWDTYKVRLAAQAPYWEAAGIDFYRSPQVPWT
Method: Streptomyces plicatus N-acetyl-β-hexosaminidase, SpHex, was expressed and purified in E. coli as described previously. Kinetic studies were performed at 25 °C in the assay buffer (sodium phosphate (50 mM), sodium citrate (50 mM), NaCl (100 mM), BSA (2 mg/mL), pH = 6.0). The enzyme was incubated with different concentrations of the inhibitors for 2–5 min prior to the start of the reaction by addition of the substrate (4-nitrophenyl N-acetyl-β-D-glucosaminide) and the initial rates were measured by monitoring the increase in absorbance at 405 nm for three to five minutes using a microplate reader (Synergy H1, BioTek, VT, USA). Ki determinations were performed using two or three different substrate concentrations. For each one of these substrate concentrations a range of five to eight different inhibitor concentrations bracketing the ultimately determined Ki value were used. Dixon plots (1/rate vs [I]) were constructed to validate the use of a competitive inhibition model. The data were then fit to a competitive inhibition model using non-linear regression analysis with GraFit 7.0 (Erithacus Software, UK). Assays were done twice using enzyme concentrations of 0.3 nM and 0.03 nM respectively in order to check compliance with the assumptions of Michaelis Menten kinetics ([E] << [I]). In addition, for compound 25, the assays were done a third time with the concentration of enzyme lowered to 0.003 nM. In all cases, the Ki values were in good agreement.

[2] = molecular target: T2, human lysosomal N-acetyl-β-hexosaminidase A (Homo sapiens, UniProt P06865); assay: Human N-acetyl-β-hexosaminidase A activity in fibroblast homogenate (4-MU N-acetyl-β-glucosaminide-6-sulfate substrate); assay type: biochemical; details: normal human skin fibroblast homogenate, pH 4.4, 37 °C, 60 min; read-out: IC50 with human lysosomal N-acetyl-β-D-hexosaminidase A
T2 construct: endogenous in cells; host or cells: human skin fibroblasts (wild type), cell homogenate
T2 sequence (P06865 89-529): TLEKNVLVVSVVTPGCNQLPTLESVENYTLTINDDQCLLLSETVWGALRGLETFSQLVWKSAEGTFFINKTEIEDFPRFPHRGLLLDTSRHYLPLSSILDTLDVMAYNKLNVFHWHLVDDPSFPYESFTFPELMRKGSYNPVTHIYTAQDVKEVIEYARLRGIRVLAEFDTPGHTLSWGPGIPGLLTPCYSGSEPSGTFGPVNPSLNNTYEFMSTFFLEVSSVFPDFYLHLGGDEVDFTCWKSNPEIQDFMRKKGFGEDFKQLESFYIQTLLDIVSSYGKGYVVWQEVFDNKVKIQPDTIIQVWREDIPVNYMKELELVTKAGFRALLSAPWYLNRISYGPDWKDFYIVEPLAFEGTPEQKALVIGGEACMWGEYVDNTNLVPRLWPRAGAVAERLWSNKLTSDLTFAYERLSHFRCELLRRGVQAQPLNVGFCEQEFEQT
T2 sequence (P07686 122-311 partner limits assumed): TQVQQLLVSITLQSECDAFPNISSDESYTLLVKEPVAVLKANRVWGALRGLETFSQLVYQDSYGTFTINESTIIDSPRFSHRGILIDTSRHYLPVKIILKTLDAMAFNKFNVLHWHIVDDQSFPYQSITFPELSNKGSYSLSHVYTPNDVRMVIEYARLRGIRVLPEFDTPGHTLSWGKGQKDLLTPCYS
T2 sequence (P07686 315-556 partner limits assumed): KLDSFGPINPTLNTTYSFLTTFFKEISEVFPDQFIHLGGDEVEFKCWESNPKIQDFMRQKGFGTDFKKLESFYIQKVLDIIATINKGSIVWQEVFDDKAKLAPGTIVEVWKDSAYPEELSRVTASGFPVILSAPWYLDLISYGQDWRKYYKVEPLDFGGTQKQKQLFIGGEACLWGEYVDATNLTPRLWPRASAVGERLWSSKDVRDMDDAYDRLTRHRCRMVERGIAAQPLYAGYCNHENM
Source text: All cells used in this study were between the third and nineteenth passages.

[3] = molecular target: T1, Streptomyces plicatus N-acetyl-β-hexosaminidase (SpHex); set-up: method as in PMID 11828466; details: with the same enzyme; read-out: Ki with SpHex (reference compound); cited from earlier work

Ki [1] [nM]	Ki ([1]; 25 °C, pH 6.0, competitive inhibition model, read-out: Ki-values with SpHex) [nM]	IC50 [2] [nM]	Compound	Ki [3] [nM]
0.7	–	–	COC(=O)CCCCCNC1C(CO)C(O)C(O)C1NC(C)=O [compound 22, (1S,2R,3S,4R,5R)-N-(Methoxycarbonyl)pentyl-3-acetamido-4-amino-5-hydroxymethyl-cyclopentanetriol]	–
–	0.7	–	CC(=O)NC1C(N)C(CO)C(O)C1O (centres unmarked) [compound 20]	–
0.06	–	300	CC(=O)NC1C(O)C(O)C(CO)C1NCCCCCCNS(=O)(=O)c1cccc2c(N(C)C)cccc12 [compound 25, (1S,2R,3S,4R,5R)-N-(6-Dansylamino)hexyl-3-acetamido-4-amino-5-hydroxymethyl-cyclopentanetriol]	–
–	–	31000	CC(=O)NC1CNC(CO)C(O)C1O (centres unmarked) [compound 1, 2-acetamido-1,2-dideoxynojirimycin, reference compound]	80000
0.6	–	880	CCCCCCNC1C(CO)C(O)C(O)C1NC(C)=O (centres unmarked) [compound 21]	–

From PMC6017319, “Potent GH20 N-Acetyl-β-D-hexosaminidase Inhibitors: N-Substituted 3-acetamido-4-amino-5-hydroxymethyl-cyclopentanediols” (Molecules : A Journal of Synthetic Chemistry and Natural …, 2018)
